Consider 16 molecules from patent US9120812B2, “Pyrimidooxazocine derivatives as mTOR-inhibitors” (SANOFI, priority 2012, dated 2015).

Test [1] deals with U87MG tumour cells. As to the kind of experiment: Test of in vitro proliferation of U87MG tumour cells. In kind it is cell-based. The settings on record: Homo sapiens, U-87 MG, 72 h, U87MG cells, 72 hours; read-out: U87 Cell Proliferation IC50. The procedure: Model 4: Test of in vitro Proliferation of U87MG Tumour Cells.
The cell growth is determined with the reagent CellTiter 96 AQueous One Solution Cell Proliferation Assay from Promega (Cat. No. G3581).

For test [2], the system named is Akt-pS473 in U87MG cells. The settings on record: Homo sapiens, U-87 MG, read-out: U87 Akt-pS473 % Inhibition or IC50, nM (IC50), U87MG cells.
Test [3] deals with mTOR (human recombinant aa mTOR 1360-2549) (Homo sapiens (Human), UniProt P42345). As to the kind of experiment: mTOR enzymatic test by TR-FRET (phosphorylation of GFP-4EBP1). Type of test: biochemical. The method, boiled down:
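TR-FRET detection of GFP-4EBP1 phosphorylation by a terbium-labelled anti-phospho-Thr46 antibody. Kinase reaction ran 30 min at room temperature, was quenched with EDTA (10 mM final) plus Tb-antibody (2 nM final) and left 60 min. Emission at 520 and 490 nm after 340 nm excitation, reported as the 520/490 ratio.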

For test [4], the target named is PI3Kα (p110α/p85α) (Homo sapiens (Human), UniProt P42336). Nature of the test: PI3Kα enzymatic test by measuring the consumption of ATP. In kind it is biochemical. The method, boiled down:
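p110α/p85α (1.7 μg/ml) with 50 μM PIP2 and 2 μM ATP in pH 7.5 Tris buffer with EGTA, MgCl2, Chaps, DTT; reaction 90 min. Remaining ATP measured by luciferin/luciferase luminescence; IC50 from threefold serial dilutions spanning at least 10 000-fold.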

Chain of PI3Kα (p110α/p85α) (P42336 whole entry): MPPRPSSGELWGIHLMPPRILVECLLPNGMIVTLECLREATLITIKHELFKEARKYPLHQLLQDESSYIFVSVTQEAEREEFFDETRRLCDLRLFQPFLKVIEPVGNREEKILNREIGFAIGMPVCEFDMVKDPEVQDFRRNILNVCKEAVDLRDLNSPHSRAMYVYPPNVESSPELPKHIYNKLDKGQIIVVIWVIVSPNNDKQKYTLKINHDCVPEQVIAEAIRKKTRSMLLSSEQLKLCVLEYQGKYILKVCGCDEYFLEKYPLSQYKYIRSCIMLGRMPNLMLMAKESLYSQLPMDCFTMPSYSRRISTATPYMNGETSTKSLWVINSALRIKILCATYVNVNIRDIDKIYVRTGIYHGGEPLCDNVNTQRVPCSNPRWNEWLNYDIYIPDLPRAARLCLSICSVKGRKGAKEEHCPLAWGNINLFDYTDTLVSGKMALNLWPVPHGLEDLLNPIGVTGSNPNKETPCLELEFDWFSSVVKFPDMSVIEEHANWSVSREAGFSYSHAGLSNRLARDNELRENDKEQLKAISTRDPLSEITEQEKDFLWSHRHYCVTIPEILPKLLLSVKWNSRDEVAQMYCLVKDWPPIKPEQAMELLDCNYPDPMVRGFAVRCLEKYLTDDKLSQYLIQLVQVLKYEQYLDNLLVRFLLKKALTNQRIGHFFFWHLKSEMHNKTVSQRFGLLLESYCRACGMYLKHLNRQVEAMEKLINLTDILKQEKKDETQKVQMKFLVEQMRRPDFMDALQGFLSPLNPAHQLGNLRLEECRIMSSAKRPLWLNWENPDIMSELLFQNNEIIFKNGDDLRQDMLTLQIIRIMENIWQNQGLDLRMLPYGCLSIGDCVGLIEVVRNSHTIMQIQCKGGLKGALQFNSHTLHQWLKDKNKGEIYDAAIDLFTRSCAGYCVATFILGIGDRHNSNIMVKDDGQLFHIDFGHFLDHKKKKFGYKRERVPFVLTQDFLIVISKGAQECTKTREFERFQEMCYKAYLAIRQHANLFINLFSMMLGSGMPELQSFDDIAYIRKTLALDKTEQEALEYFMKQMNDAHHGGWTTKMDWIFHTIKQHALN
Chain of PI3Kα (p110α/p85α) (P27986 whole entry partner): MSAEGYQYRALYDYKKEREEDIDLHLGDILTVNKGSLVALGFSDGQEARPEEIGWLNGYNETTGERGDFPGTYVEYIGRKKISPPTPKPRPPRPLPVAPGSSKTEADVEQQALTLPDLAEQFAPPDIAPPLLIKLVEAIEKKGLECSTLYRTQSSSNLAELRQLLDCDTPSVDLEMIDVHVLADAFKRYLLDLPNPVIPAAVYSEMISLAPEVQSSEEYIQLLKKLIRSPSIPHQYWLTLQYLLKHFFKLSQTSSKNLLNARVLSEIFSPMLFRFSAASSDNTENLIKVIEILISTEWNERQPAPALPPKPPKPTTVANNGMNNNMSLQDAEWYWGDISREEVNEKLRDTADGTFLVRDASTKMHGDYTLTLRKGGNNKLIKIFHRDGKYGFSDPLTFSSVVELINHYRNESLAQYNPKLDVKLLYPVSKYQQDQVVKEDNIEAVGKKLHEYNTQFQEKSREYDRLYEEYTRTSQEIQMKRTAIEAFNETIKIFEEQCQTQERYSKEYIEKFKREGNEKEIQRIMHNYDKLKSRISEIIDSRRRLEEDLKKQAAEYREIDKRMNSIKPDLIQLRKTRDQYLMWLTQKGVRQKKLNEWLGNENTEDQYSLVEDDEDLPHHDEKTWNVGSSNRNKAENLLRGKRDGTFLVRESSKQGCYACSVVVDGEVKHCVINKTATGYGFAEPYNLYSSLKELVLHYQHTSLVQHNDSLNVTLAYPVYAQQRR
Chain of mTOR (human recombinant aa mTOR 1360-2549) (P42345 1360-2549): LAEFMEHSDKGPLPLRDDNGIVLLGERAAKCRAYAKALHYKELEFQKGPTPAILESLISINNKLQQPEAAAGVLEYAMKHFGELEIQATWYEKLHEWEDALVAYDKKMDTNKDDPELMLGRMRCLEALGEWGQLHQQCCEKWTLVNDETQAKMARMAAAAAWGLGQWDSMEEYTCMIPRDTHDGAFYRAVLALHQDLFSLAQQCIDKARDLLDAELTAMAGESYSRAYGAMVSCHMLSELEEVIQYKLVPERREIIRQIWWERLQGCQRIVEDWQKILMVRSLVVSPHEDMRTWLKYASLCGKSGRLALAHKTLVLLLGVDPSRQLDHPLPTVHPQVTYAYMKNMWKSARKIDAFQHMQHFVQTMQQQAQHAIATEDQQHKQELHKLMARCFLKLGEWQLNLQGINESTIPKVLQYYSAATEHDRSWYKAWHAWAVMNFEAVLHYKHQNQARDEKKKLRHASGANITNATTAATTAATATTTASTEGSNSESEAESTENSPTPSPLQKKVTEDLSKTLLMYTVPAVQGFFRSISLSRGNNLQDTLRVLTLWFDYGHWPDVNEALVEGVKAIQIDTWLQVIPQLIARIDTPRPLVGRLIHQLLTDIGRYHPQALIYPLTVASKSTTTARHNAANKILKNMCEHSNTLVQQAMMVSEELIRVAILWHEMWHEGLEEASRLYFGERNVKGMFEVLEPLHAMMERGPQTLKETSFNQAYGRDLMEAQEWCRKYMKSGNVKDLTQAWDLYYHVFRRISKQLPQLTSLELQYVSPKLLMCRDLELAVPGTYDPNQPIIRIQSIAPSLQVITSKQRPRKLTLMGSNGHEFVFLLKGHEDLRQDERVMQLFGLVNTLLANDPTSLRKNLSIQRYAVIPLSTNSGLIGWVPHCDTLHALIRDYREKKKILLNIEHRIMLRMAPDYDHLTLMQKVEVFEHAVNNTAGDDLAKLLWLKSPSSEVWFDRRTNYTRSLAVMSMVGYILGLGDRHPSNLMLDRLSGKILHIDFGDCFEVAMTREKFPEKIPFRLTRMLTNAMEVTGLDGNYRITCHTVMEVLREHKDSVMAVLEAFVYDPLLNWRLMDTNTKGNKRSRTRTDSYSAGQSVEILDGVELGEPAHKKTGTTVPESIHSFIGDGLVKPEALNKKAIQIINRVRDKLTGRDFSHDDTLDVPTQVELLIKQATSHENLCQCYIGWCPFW

`CCN1CC(C)(C)Oc2nc(N3CCOC[C@@H]3C)nc(-c3ccc(NC(=O)OCC(C)(C)O)cc3)c2C1=O` [Example 214, {4-[6-Ethyl-8,8-dimethyl-2-((S)-3-methylmorpholin-4-yl)-5-oxo-5,6,7,8-tetrahydro-9-oxa-1,3,6-triazabenzocyclohepten-4-yl]phenyl}carbamic acid 2-hydroxy-2-methylpropyl ester]: the IC50 was more than 10000 nM in test [1], more than 1000 nM in test [2] and 2450 nM in test [3]. Further, the “PI3Ka IC50” value in test [4] is more than 10000 nM.
The like results for `CCN1CC(C)(C)Oc2nc(N3C4CCC3COC4)nc(-c3ccc(NC(=O)NC)c(F)c3)c2C1=O` [Example 207, 1-{4-[6-Ethyl-8,8-dimethyl-2-(3-oxa-8-azabicyclo[3.2.1]oct-8-yl)-5-oxo-5,6,7,8-tetrahydro-9-oxa-1,3,6-triazabenzocyclohepten-4-yl]-2-fluorophenyl}-3-methylurea] were, in that order, 74 nM, 19 nM, 18 nM and more than 10000 nM.
Turning to `CCN1CC(C)(C)Oc2nc(N3CCOC[C@@H]3C)nc(-c3ccc(NC(=O)Nc4nnc(C)o4)c(F)c3)c2C1=O` [Example 170, 1-{4-[6-Ethyl-8,8-dimethyl-2-((S)-3-methylmorpholin-4-yl)-5-oxo-5,6,7,8-tetrahydro-9-oxa-1,3,6-triazabenzocyclohepten-4-yl]-2-fluorophenyl}-3-(5-methyl-[1,3,4]oxadiazol-2-yl)urea], the IC50 came to 557 nM in test [1], 94 nM in test [2] and 106 nM in test [3]. In addition, the “PI3Ka IC50” value in test [4] was 824 nM.
In the case of `CCNC(=O)Nc1ccc(-c2nc(N3CC4CCC(C3)O4)nc3c2C(=O)N(CC)CC(C)(C)O3)cc1` [Example 99, 1-Ethyl-3-{4-[6-ethyl-8,8-dimethyl-2-(8-oxa-3-azabicyclo[3.2.1]oct-3-yl)-5-oxo-5,6,7,8-tetrahydro-9-oxa-1,3,6-triazabenzocyclohepten-4-yl]phenyl}urea], the IC50 in test [1] worked out at 239 nM; in test [2], 40 nM; in test [3] it was 31 nM. Further, the “PI3Ka IC50” value in test [4] is reported as more than 10000 nM.
With `COCCN1CC(C)(C)Oc2nc(N3CC4CCC(C3)O4)nc(-c3ccc(NC(=O)Nc4ccc(OC)nc4)c(F)c3)c2C1=O` [Example 178, 1-{2-Fluoro-4-[6-(2-methoxyethyl)-8,8-dimethyl-2-(8-oxa-3-azabicyclo[3.2.1]oct-3-yl)-5-oxo-5,6,7,8-tetrahydro-9-oxa-1,3,6-triazabenzocyclohepten-4-yl]phenyl}-3-(6-methoxypyridin-3-yl)urea], the results for the IC50 in test [1], in test [2] and in test [3] were 252 nM, 104 nM and 45 nM, respectively. In addition, the “PI3Ka IC50” value in test [4] is listed as more than 10000 nM.
The matching figures for `CCN1CC(C)(C)Oc2nc(N3CC4CCC(C3)O4)nc(-c3ccc(NC(=O)Nc4ccc(OCCOC)cn4)cc3)c2C1=O` [Example 40, 1-{4-[6-Ethyl-8,8-dimethyl-2-(8-oxa-3-azabicyclo[3.2.1]oct-3-yl)-5-oxo-5,6,7,8-tetrahydro-9-oxa-1,3,6-triazabenzocyclohepten-4-yl]phenyl}-3-[5-(2-methoxyethoxy)pyridin-2-yl]urea]: 274 nM, 59 nM, 56 nM and more than 10000 nM.
With `CCN1CC(C)(C)Oc2nc(N3C4CCC3COC4)nc(-c3ccc(NC(=O)Nc4ccc(N5CC6CCC(C5)O6)nc4)c(F)c3)c2C1=O` [Example 259, 1-{4-[6-Ethyl-8,8-dimethyl-2-(3-oxa-8-azabicyclo[3.2.1]oct-8-yl)-5-oxo-5,6,7,8-tetrahydro-9-oxa-1,3,6-triazabenzocyclohepten-4-yl]-2-fluorophenyl}-3-[6-(8-oxa-3-azabicyclo[3.2.1]oct-3-yl)pyridin-3-yl]urea], the IC50 in test [1] came out at 87 nM; in test [2], 16 nM; in test [3], 87 nM. Also, the “PI3Ka IC50” value in test [4] is recorded as more than 10000 nM.
`CN1CC(C)(C)Oc2nc(N3C4CCC3COC4)nc(-c3ccc(NC(=O)Nc4ccccn4)cc3)c2C1=O` [Example 41, 1-Pyridin-2-yl-3-{4-[6,8,8-trimethyl-2-(3-oxa-8-azabicyclo[3.2.1]oct-8-yl)-5-oxo-5,6,7,8-tetrahydro-9-oxa-1,3,6-triazabenzocyclohepten-4-yl]phenyl}urea]: the IC50 came out at 122 nM in test [1], 31 nM in test [2] and 35 nM in test [3]. Moreover, in test [4], the “PI3Ka IC50” value is more than 10000 nM.
The matching figures for `CCN1CC(C)(C)Oc2nc(N3CC4CCC(C3)O4)nc(-c3ccc(NC(=O)Nc4ccnc(N5CC6CCC(C5)O6)c4)c(F)c3)c2C1=O` [Example 260, 1-{4-[6-Ethyl-8,8-dimethyl-2-(8-oxa-3-azabicyclo[3.2.1]oct-3-yl)-5-oxo-5,6,7,8-tetrahydro-9-oxa-1,3,6-triazabenzocyclohepten-4-yl]-2-fluorophenyl}-3-[2-(8-oxa-3-azabicyclo[3.2.1]oct-3-yl)pyridin-4-yl]urea]: 95 nM, 24 nM, 174 nM and more than 10000 nM.
As for `CCN1CC(C)(C)Oc2nc(N3CCOC[C@@H]3C)nc(-c3ccc(NC(=O)Nc4ccc(OC)nc4)c(F)c3)c2C1=O` [Example 141, 1-{4-[6-Ethyl-8,8-dimethyl-2-((S)-3-methylmorpholin-4-yl)-5-oxo-5,6,7,8-tetrahydro-9-oxa-1,3,6-triazabenzocyclohepten-4-yl]-2-fluorophenyl}-3-(6-methoxypyridin-3-yl)urea], the values for the IC50 in test [1], in test [2] and in test [3] were 94 nM, 19 nM and 34 nM, respectively. Moreover, the “PI3Ka IC50” value in test [4] stood at 598 nM.
The like results for `CCN1CC(C)(C)Oc2nc(N3CC4CCC(C3)O4)nc(-c3ccc(NC(=O)Nc4cc(OC)ccn4)cc3)c2C1=O` [Example 35, 1-{4-[6-Ethyl-8,8-dimethyl-2-(8-oxa-3-azabicyclo[3.2.1]oct-3-yl)-5-oxo-5,6,7,8-tetrahydro-9-oxa-1,3,6-triazabenzocyclohepten-4-yl]phenyl}-3-(4-methoxypyridin-2-yl)urea] were, in that order, 336 nM, 75 nM, 37 nM and more than 10000 nM.
The like results for `CCN1CC(C)(C)Oc2nc(N3CC4CCC(C3)O4)nc(-c3ccc(NC(=O)Nc4ccnc(OC)n4)c(F)c3)c2C1=O` [Example 144, 1-{4-[6-Ethyl-8,8-dimethyl-2-(8-oxa-3-azabicyclo[3.2.1]oct-3-yl)-5-oxo-5,6,7,8-tetrahydro-9-oxa-1,3,6-triazabenzocyclohepten-4-yl]-2-fluorophenyl}-3-(2-methoxypyrimidin-4-yl)urea] were, in that order, 2570 nM, 142 nM, 105 nM and more than 10000 nM.
For the molecule `C[C@H]1COCCN1c1nc2c(c(-c3ccc(NC(=O)Nc4ccon4)c(F)c3)n1)C(=O)N(C1CCOCC1)CC(C)(C)O2` [Example 156, 1-{4-[8,8-Dimethyl-2-((S)-3-methylmorpholin-4-yl)-5-oxo-6-(tetrahydropyran-4-yl)-5,6,7,8-tetrahydro-9-oxa-1,3,6-triazabenzocyclohepten-4-yl]-2-fluorophenyl}-3-isoxazol-3-ylurea], the IC50 in test [1] worked out at 395 nM; in test [2], 92 nM; in test [3], 27 nM. Further, the “PI3Ka IC50” value in test [4] amounted to 1140 nM.
The like results for `COCCN1CC(C)(C)Oc2nc(N3CCOC[C@@H]3C)nc(-c3ccc(NC(=O)Nc4cnn(C)c4)cc3)c2C1=O` [Example 201, 1-{4-[6-(2-Methoxyethyl)-8,8-dimethyl-2-((S)-3-methylmorpholin-4-yl)-5-oxo-5,6,7,8-tetrahydro-9-oxa-1,3,6-triazabenzocyclohepten-4-yl]phenyl}-3-(1-methyl-1H-pyrazol-4-yl)urea] were, in that order, 898 nM, 230 nM, 48 nM and 813 nM.
The like results for `Cn1ccc(NC(=O)Nc2ccc(-c3nc(N4CC5CCC(C4)O5)nc4c3C(=O)N(C3CCOCC3)CC(C)(C)O4)cc2)n1` [Example 16, 1-{4-[8,8-dimethyl-2-(8-oxa-3-azabicyclo[3.2.1]oct-3-yl)-5-oxo-6-(tetrahydropyran-4-yl)-5,6,7,8-tetrahydro-9-oxa-1,3,6-triazabenzocyclohepten-4-yl]phenyl}-3-(1-methyl-1H-pyrazol-3-yl)urea] were, in that order, 527 nM, 269 nM, 19 nM and more than 10000 nM.
The matching figures for `COCCN1CC(C)(C)Oc2nc(N3CCOC[C@@H]3C)nc(-c3ccc(NC(=O)Nc4ccc(F)cc4F)cc3)c2C1=O` [Example 188, 1-(2,4-Difluorophenyl)-3-{4-[6-(2-methoxyethyl)-8,8-dimethyl-2-((S)-3-methylmorpholin-4-yl)-5-oxo-5,6,7,8-tetrahydro-9-oxa-1,3,6-triazabenzocyclohepten-4-yl]phenyl}urea]: 505 nM, 45 nM, 63 nM and 2330 nM.
